Usually inhibition stands for the relative decrease from the control value, in per cent.

The target of test [1] is T1, Abscisic acid 8'-hydroxylase 3 (Arabidopsis thaliana, UniProt Q9FH76).
T1 sequence (Q9FH76 whole entry): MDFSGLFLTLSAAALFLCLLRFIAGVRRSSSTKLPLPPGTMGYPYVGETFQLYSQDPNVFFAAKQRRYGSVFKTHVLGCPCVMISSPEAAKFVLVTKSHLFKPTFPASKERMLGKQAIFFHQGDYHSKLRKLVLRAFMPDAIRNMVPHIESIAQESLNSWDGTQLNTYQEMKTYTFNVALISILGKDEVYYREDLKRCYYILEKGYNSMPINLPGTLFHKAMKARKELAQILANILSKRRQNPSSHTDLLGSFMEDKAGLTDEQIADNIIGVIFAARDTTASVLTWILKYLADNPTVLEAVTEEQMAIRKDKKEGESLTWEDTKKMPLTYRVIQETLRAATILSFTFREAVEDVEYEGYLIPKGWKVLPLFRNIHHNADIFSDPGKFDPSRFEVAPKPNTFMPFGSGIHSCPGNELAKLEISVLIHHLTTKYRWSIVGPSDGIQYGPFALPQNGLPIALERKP
Description: Inhibition of recombinant CYP707A3 at 50 uM.

Test [2] has as its target T1, Abscisic acid 8'-hydroxylase 3. Description: Inhibition of recombinant CYP707A3 at 5 uM.

`CC(=C/C(=O)O)/C=C/[C@@]1(O)C(CO)=CC(=O)CC1(C)C`: the inhibition at 50 µM in test [1] amounted to 0%. Besides, the inhibition at 5 µM in test [2] came to 0%.

For the compound `CC(=C/C(=O)O)/C=C/[C@H]1C(CO)=CC(=O)CC1(C)C`, the inhibition at 50 µM in test [1] amounted to 24%. Further, in test [2], the inhibition at 5 µM amounted to 0%.

Consider `CC(=C/C(=O)O)/C=C/[C@@]1(O)C(C=O)=CC(=O)CC1(C)C`, for which the inhibition at 50 µM in test [1] is 63%. Besides, the inhibition at 5 µM in test [2] was 15%.

The record behind these values is ChEMBL document CHEMBL1140663, “Effect of the minor ABA metabolite 7'-hydroxy-ABA on Arabidopsis ABA 8'-hydroxylase CYP707A3” (Bioorg Med Chem Lett, 2007).
